Entries after “also recorded” stand apart in the source; their conditions may differ.
Legend:
systemic blood pressure = assay: Blood pressure and heart rate in anesthetized mice; assay type: in vivo; details: for effect on systemic blood pressure: IV and subcutaneous administration, mice
Experimental: As in 14A, except that RP-H220 is injected; no significant changes in blood pressure (FIG. 14B). Effect of a single intravenous injection of RP-220 (squares) and RP-H220 (diamonds) on heart rate in wild type mice (FIG. 14C).
FIG. 21 depicts the results of experiments examining the effect of RP-220 injection on blood pressure. A single subcutaneous injection of RP-220 (n=3) or buffer (n=2) in anesthetized wild type mice; BP pressure is recorded continuously; RP-220 is given at time 0; each data point represents the mean pressure; the standard error of the means are shown.
Systolic and diastolic pressure and heart rate were measured in anesthetized mice as previously described (Desir et al., 2012, J Am Heart Assoc. 1:e002634).

[1] = NADH / amine oxidase activity of renalase peptides; assay type: biochemical; details: 25 mM Tris, pH 7.5, 5 mM NaCl, 150 μM NADH, 37° C.
Experimental: Renalase isoforms Ren1-7; exons numbered from 1 to 10; RP-224: renalase peptide amino acid 224-233 of Ren1 or Ren2; RP-220; amino acids 220-239; RP-H220: histidine tagged RP-220; RP-Scr220: scrambled RP-220 (FIG. 19A). CCL-119 cells in culture treated with anti-renalase monoclonal antibody for 24 hrs; cell survival measured by the WST-1 method; n=3, *: P<0.05 (FIG. 19B). HK-2 cell treated with 2 mM H2O2 with and without renalase peptides for indicated time; LDH: lactate dehydrogenase; n=6, *: P<0.05 for Control vs. renalase peptide (FIG. 19C). HK-2 cells treated with 20 μM cisplatin with and without recombinant renalase and renalase peptides for 24 hrs, *: P<0.05, control vs. renalase peptide (FIG. 19D). Plasma creatinine levels from mice subjected to sham-surgery or to renal ischemia and reperfusion (IR); Renalase WT mice were subjected to sham-surgery or to 30 min renal IR. For mice subjected to renal IR, RP-H220 or vehicle (saline) was injected 10 min prior to renal ischemia.
Human recombinant renalase was synthesized as described (Desir et al., 2012, J Am Heart Assoc. 1:e002634). […] Renalase enzymatic activity was measured as previously described (Desir et al., 2012, J Am Heart Assoc. 1:e002634). Renalase expression was detected using an anti-renalase monoclonal antibody generated against the renalase peptide RP-220 (amino acid

[2] = system: PI3K/AKT and MAPK pathways; assay: AKT and MAPK signaling and Bcl-2 expression by western blot; assay type: cell-based, human
Experimental: FIG. 12, comprising FIGS. 12A through 12E, is a set of images and graphs showing renalase upregulates Bcl-2, activates PI3K/AKT, ERK, p38, and inhibits JNK. Western blot analysis; P− indicates phosphorylated, activated proteins; signals normalized to GAPDH loading control, then changes in protein phosphorylation (increase=activation, decrease=inhibition) from time 0 are calculated. FIG. 12A: HK-2 and HUVEC cells incubated with renalase for 24 hrs; FIG. 12B: Western blot of time course of AKT and MAPK signaling by renalase, HK-2 cells incubated with renalase for indicated time; changes over baseline in 4c-d are significant (p<0.05); FIG. 12C: Activation of AKT(T308), AKT(5473) and ERK; FIG. 12D: Inhibition of JNK; FIG. 12E: Marked and sustained (60 min) upregulation of p38 by renalase in the presence of cisplatin, western blot for time course, REN=renalase, CP=cisplatin.
MAPK signaling by renalase and renalase peptides. Western blot analysis; ERK: Extracellular signal-Regulated Kinase 1 and 2; JNK: c-Jun N-terminal Kinases; AKT: protein kinase B; p-indicates phosphorylated, activated proteins; representative blot, n=3 (FIG. 20A). Renalase activates AKT (FIG. 20B). Western blot analysis; P− indicates phosphorylated, activated proteins Representative blot, n=3 (FIG. 20B, left panel). Signals normalized to GAPDH loading control; n=3, change over baseline statistically significant (P<0.05) from 1-60 min for ERK, p38 and AKT (T308), and at 30 min only for AKT (S473) (FIG. 20B, right panel). ERK or AKT inhibition abrogates protective effect of RP-H220 (FIG. 20C). Plasma creatinine levels from mice subjected to sham-surgery or to renal ischemia and reperfusion (IR); Renalase WT mice were subjected to sham-surgery or to 30 min renal IR. For mice subjected to renal IR, RP-H220 or vehicle (saline) was injected 10 min prior to renal ischemia. Some animals were pretreated with either the ERK inhibitor PD98059 or the PI3K/AKT inhibitor wortmanin. (N=6-8 per group). *: P<0.05 vs. vehicle-treated mice subjected to sham-surgery; #: P<0.05 vs. vehicle-treated WT mice subjected to renal IR (FIG. 20C).

HK-2 cells [3] = assay: HK-2 cell necrosis induced with 2 mM H2O2 (LDH release); assay type: cell-based, human; details: at 2 and 4 hrs
Experimental: (§1) HK2 cells (human proximal tubular line) obtained from ATTC (Manassas, Va., USA) were cultured in DMEM/F12 supplemented with glutamine, 10% FBS and antibiotics, and were maintained at 37° C. in 5% CO2. Cells were exposed to cisplatin (20 μM) in the presence or absence of renalase for 24 hrs, and cell viability was assessed by the WST1 method (Roche Applied Science, Germany). Cells were then harvested in RIPA buffer (20 mM Tris-HCl pH 7.5, 150 mM NaCl, 1 mM Na2EDTA, 1 mM EGTA, 1% NP-40, 1% sodium deoxycholate, 2.5 mM sodium pyrophosphate, 1 mM β-glycerophosphate, 1 mM Na3VO4, 1 μg/ml leupeptin) supplemented with a protease and phosphatase inhibitor cocktail (Roche Applied Science, Germany). Proteins were separated by SDS-PAGE and Western blotting was carried out using the following antibodies: anti-renalase monoclonal (Desir et al., 2012, J Am Heart Assoc. 1:e002634; (Lee et al., 2013, J Am Soc Nephrol 24:445-455); anti caspase 3 (Cell Signaling Technology, MA, USA) and anti Bcl2 (Thermo Scientific, USA). Necrotic injury in HK-2 cells (ATCC, Manassas, Va.) was induced with exposure to 2 mM H2O2 for 2-8 hr and lactate dehydrogenase (LDH) released into cell culture media was measured as described using a commercial LDH assay kit (Promega, Madison, Wis.) (Lee and Emala, 2002, American journal of physiology. Renal physiology 282:F844-852).

HK-2 cells [4] = assay: HK-2 cell cisplatin toxicity (WST-1 viability, western blot); assay type: cell-based, human; details: 20 μM cisplatin, 24 hrs
Experimental: Cultured HK-2 cells were incubated with 20 μM cisplatin for 24 hours with and without recombinant renalase. Renalase expression was examined by Western blot and cell viability (mitochondrial integrity) was determined spectrophotometrically using WST-1, a tetrazolium salt that is cleaved, by mitochondrial dehydrogenases of metabolically active and viable cells, to formazan (420-480 nm) (Boehringer Mannheim, Germany).
as §1

RP H220: histidine tagged RP-220, SEQ ID NO: 4, HHHHHHCIRFVSIDNKKRNIESSEIG (listed as Homo sapiens)
effect on systemic blood pressure (systemic blood pressure): nor significant effect on systemic blood pressure; also recorded: no effect on BP | effect on systemic blood pressure (systemic blood pressure; listed as RP-H220): neither intravenous nor subcutaneous injection of RP-H220 had any effect on blood pressure | heart rate (systemic blood pressure; anesthetized WT mice): did not change | NADH or amine oxidase activity [1]: no detectable NADH or amine oxidase activity; also recorded: neither detectable oxidase activity | return of phosphorylation to baseline ([2]; HK-2 cells): ≤ 60 min | time to detectable increased phosphorylation ([2]; HK-2 cells): ≤ 1 min | JNK phosphorylation ([2]; at 60 min): decreased | necrosis induced with 2 mM H2O2 (HK-2 cells [3]): significantly reduced necrosis | cell survival / protection against cisplatin toxicity (HK-2 cells [4]): improved HK-2 cell survival
